Measured values as given in patent US20230365617A1, “SAPONIN DERIVATIVES FOR USE IN MEDICINE” (priority 2020, published 2023).
Where two headings read alike, the source gives them in different places.

How the values were obtained:
HeLa cells [1] = experiment: Pilot cell killing bioassay, saponin with or without 1.5 pM dianthin-EGF, 72 h; assay type: cell-based, human; parameters: key: Cell killing activity (+ or -); Cell killing activity (+ or -)
Method: HeLa cells were incubated for 72 h with the following constructs and cell viability before and after the 72 h-incubation was assessed. In the experiments, cells were exposed to 1.5 pM dianthin-EGF conjugate. A negative control were cells incubated with buffer vehicle and 10 microgram/ml saponin, without dianthin-EGF. Cell viability was set to 100% for the control in which both saponin and EGF-dianthin were omitted. […] Cell viability after 72 h was essentially 0%. For the chemically modified saponin variants, 10 microgram/ml saponin was tested in combination with 1.5 pM dianthin-EGF.

[2] = tested on: A431 cells (EGFR expressing); experiment: Cell viability, saponin titration with or without […] EGFdianthin; assay type: cell-based, human
HeLa cells [3] = experiment: cells; assay type: cell-based, human
Method: (§1) (FIGS. 66A and 66B). Next toxicity was determined, for this the modified saponins were titrated on HeLa and A431 cells. […] Next toxicity was determined, for this the modified saponins were titrated on HeLa and A431 cells.

A431 cells = experiment: cells; assay type: cell-based; details: Homo sapiens, A-431, saponin alone, read-out: IC50 toxicity on A431 cells
Method: as §1

in vitro = assay type: cell-based, human; details: human red blood cells; read-out: IC50 hemolytic activity
Method: (§2) Cells were pelleted by centrifugation for 10 min, 800xg at RT.

human red blood cells = experiment: cells; assay type: cell-based; details: Erythrocyte
Method: as §2

[4] = Critical micellar concentration (CMC) by ANS fluorescence; assay type: physicochemical; details: for CMC compared with the corresponding native/underivatised saponin: qualitative
Method: The critical micellar concentration (CMC) of saponins derived from Saponaria officinalis (SO) (Table A7) and derived from Quillaja saponaria (QS) (Table A8, and Table A9) was determined by the method of DeVendittis et al. (A fluorimetric method for the estimation of the critical micelle concentration of surfactants, Analytical Biochemistry, Volume 115, Issue 2, August 1981, Pages 278-286) as follows:
The emission spectrum of 8-Anilinonaphthalene-1-sulfonic acid (ANS) in either purified water (MQ) or PBS (Dulbecco’s PBS +/+) was determined at dry weight concentrations of saponins ranging from 1 to 1400 µM to cover the range below and above the CMC. Above the CMC, the fluorescence yield of ANS increases and the wavelength of maximum emission decreases due to portioning of the fluorescent dye into micelles. Fluorescence yields were recorded on a Fluoroskan Ascent FL (Thermo Scientific) at an excitation wavelength of 355 nm, and an emission wavelength of 460 nm. 6 µg at a concentration of 75.86 µM of ANS were used per sample and measurement.
The critical micellar concentration (CMC) of saponins was determined by the method of DeVendittis et al. (A fluorimetric method for the estimation of the critical micelle concentration of surfactants, Analytical Biochemistry, Volume 115, Issue 2, August 1981, Pages 278-286) as follows: […]

[5] = tested on: A2058 cells (EGFR non-expressing); experiment: Cell viability, saponin titration with or without […] EGFdianthin; assay type: cell-based, human; details: saponin as single compound
[6] = 10 µg/ml SO1861 or SO1861-derivative alone
[7] = SO saponins, determined in PBS (Table A7)
[8] = 10 µg/ml SO1861 or SO1861-derivative + […] EGFdianthin
[9] = HeLa cells, saponin alone (Table A5), read-out: IC50 nM (Toxicity)
[10] = SO1831 and Aescin, determined in PBS (Table A11)

Compound: CC(=O)OC1C(C)OC(OC2C(C)OC(OC(=O)C34CCC(C)(C)CC3C3=CCC5C6(C)CCC(OC7OC(C(=O)O)C(O)C(OC8OCC(O)C(O)C8O)C7OC7OC(CO)C(O)C(O)C7O)C(C)(C=NNC(=O)CCOCCOCCOCCOCCN=[N+]=[N-])C6CCC5(C)C3(C)CC4O)C(OC3OC(C)C(OC4OCC(O)C(OC5OC(CO)C(O)C(O)C5O)C4O)C(O)C3O)C2O)C(O)C1OC1OCC(O)C(O)C1O (stereo not shown)
- Cell killing activity (+ or -) (HeLa cells [1]; [6]): -
- IC50 ([2]; read-out: general toxicity in absence of EGFdianthin, saponin as single compound): > 10 µM

Compound: CC[C@H](C)[C@H](C[C@H](O)CC(=O)OC1C(C)OC(OC(=O)[C@]23CCC(C)(C)CC2C2=CCC4[C@@]5(C)CC[C@H](OC6OC(C(=O)NC(C)(CO)CO)C(O)C(OC7OCC(O)C(O)C7O)C6OC6OC(CO)C(O)C(O)C6O)[C@@](C)(/C=N/NC(=O)CCCCCN6C(=O)C=CC6=O)C5CC[C@@]4(C)[C@]2(C)C[C@H]3O)C(OC2OC(C)C(OC3OCC(O)C(OC4OCC(O)(CO)C4O)C3O)C(O)C2O)C1O)OC(=O)C[C@@H](O)C[C@H](OC1OC(CO)C(O)C1O)[C@@H](C)CC (stereo partly shown) [QS21-(Ald-EMCH)-(Glu-AMPD)]
- IC50 (HeLa cells [3]; Homo sapiens, HeLa cells (Table A12, Example 8), read-out: IC50 nM (Toxicity)): > 30000 nM
- IC50 (HeLa cells [3]; Homo sapiens, HeLa, saponin alone, read-out: IC50 toxicity on HeLa cells): > 30000 nM
- IC50 (A431 cells): > 30 µM
- HC50 (in vitro): > 1 mM
- IC50 (human red blood cells; human red blood cells (Table A12, Example 8), read-out: IC50 nM (hemolysis)): > 300000 nM
- IC50 (human red blood cells; human red blood cells, read-out: IC50 hemolytic activity): > 300000 nM

Compound: CC[C@H](C)[C@H](C[C@H](O)CC(=O)OC1C(C)OC(OC(=O)[C@]23CCC(C)(C)CC2C2=CCC4[C@@]5(C)CC[C@H](OC6OC(C(=O)O)C(O)C(OC7OCC(O)C(O)C7O)C6OC6OC(CO)C(O)C(O)C6O)[C@@](C)(/C=N/NC(=O)CCCCCN6C(=O)C=CC6=O)C5CC[C@@]4(C)[C@]2(C)C[C@H]3O)C(OC2OC(C)C(OC3OCC(O)C(OC4OCC(O)(CO)C4O)C3O)C(O)C2O)C1O)OC(=O)C[C@@H](O)C[C@H](OC1OC(CO)C(O)C1O)[C@@H](C)CC (stereo partly shown) [QS21-Ald-EMCH]
- IC50 (HeLa cells [3]; Homo sapiens, HeLa, read-out: IC50 nM (Toxicity), HeLa cells (Table A12, Example 8)): > 30000 nM
- IC50 (human red blood cells; Homo sapiens, read-out: IC50 hemolytic activity, human red blood cells): 30000 nM

Compound: CC(=O)OC1C(C)OC(OC2C(C)OC(OC(=O)[C@]34CCC(C)(C)CC3C3=CCC5[C@@]6(C)CC[C@H](OC7OC(C(=O)O)C(O)C(OC8OCC(O)C(O)C8O)C7OC7OC(CO)C(O)C(O)C7O)[C@@](C)(C=O)C6CC[C@@]5(C)[C@]3(C)C[C@H]4O)C(OC3OC(C)C(OC4OCC(O)C(OC5OC(CO)C(O)C(O)C5O)C4O)C(O)C3O)C2O)C(O)C1OC1OCC(O)C(O)C1O (stereo partly shown) [SO1861, reference compound]
- CMC ([4]; SO1861 saponins): 185 µM
- CMC [4, 7]: 185 ± 19 µM
- Cell killing activity (+ or -) (HeLa cells [1]; [8]): +
- Cell killing activity (+ or -) (HeLa cells [1]; [6]): -
- general toxicity in absence of EGFdianthin ([2]; saponin as single compound): strong cell viability reduction
- general toxicity in absence of EGFdianthin [5]: strong cell viability reduction

Compound: CC(=O)OC1C(C)OC(OC2C(C)OC(OC(=O)C34CCC(C)(C)CC3C3=CCC5C6(C)CCC(OC7OC(C(=O)NC(C)(CO)CO)C(O)C(OC8OCC(O)C(O)C8O)C7OC7OC(CO)C(O)C(O)C7O)C(C)(C=NNC(=O)CCCCCN7C(=O)C=CC7=O)C6CCC5(C)C3(C)CC4O)C(OC3OC(C)C(OC4OCC(O)C(OC5OC(CO)C(O)C(O)C5O)C4O)C(O)C3O)C2O)C(O)C1OC1OCC(O)C(O)C1O (stereo not shown) [SO1861-(Ald-EMCH)-(Glu-AMPD)]
- CMC [4, 7]: > 30 µM
- CMC compared with the corresponding native/underivatised saponin [4]: lower CMC values

Compound: CC(=O)OC1C(C)OC(OC2C(C)OC(OC(=O)[C@]34CCC(C)(C)CC3C3=CCC5[C@@]6(C)CC[C@H](OC7OC(C(=O)NC(C)(CO)CO)C(O)C(OC8OCC(O)C(O)C8O)C7OC7OC(CO)C(O)C(O)C7O)[C@@](C)(CO)C6CC[C@@]5(C)[C@]3(C)C[C@H]4O)C(OC3OC(C)C(OC4OCC(O)C(OC5OC(CO)C(O)C(O)C5O)C4O)C(O)C3O)C2O)C(O)C1OC1OCC(O)C(O)C1O (stereo partly shown) [SO1861-(Ald-OH)-(Glu-AMPD)]
- CMC [4, 7]: 50 ± 5 µM
- CMC compared with the corresponding native/underivatised saponin [4]: lower CMC values

Compound: CC(=O)OC1C(C)OC(OC2C(C)OC(OC(=O)[C@]34CCC(C)(C)CC3C3=CCC5[C@@]6(C)CC[C@H](OC7OC(C(=O)NCCN8C(=O)C=CC8=O)C(O)C(OC8OCC(O)C(O)C8O)C7OC7OC(CO)C(O)C(O)C7O)[C@@](C)(CO)C6CC[C@@]5(C)[C@]3(C)C[C@H]4O)C(OC3OC(C)C(OC4OCC(O)C(OC5OC(CO)C(O)C(O)C5O)C4O)C(O)C3O)C2O)C(O)C1OC1OCC(O)C(O)C1O (stereo partly shown) [SO1861-(Glu-AEM)-(Ald-OH)]
- CMC [4, 7]: 90 ± 10 µM
- CMC compared with the corresponding native/underivatised saponin [4]: lower CMC values

Compound: CC(=O)OC1C(C)OC(OC2C(C)OC(OC(=O)[C@]34CCC(C)(C)CC3C3=CCC5[C@@]6(C)CC[C@H](OC7OC(C(=O)O)C(O)C(OC8OCC(O)C(O)C8O)C7OC7OC(CO)C(O)C(O)C7O)[C@@](C)(/C=N/NC(=O)CCCCCN7C(=O)C[C@H](SCCO)C7=O)C6CC[C@@]5(C)[C@]3(C)CC4O)C(OC3OC(C)C(OC4OCC(O)C(OC5OC(CO)C(O)C(O)C5O)C4O)C(O)C3O)C2O)C(O)C1OC1OCC(O)C(O)C1O (stereo partly shown) [SO1861-Ald-EMCH-blocked]
- IC50 (HeLa cells [3]; [9]): > 100000 nM
- CMC [4, 7]: 50 ± 5 µM

Compound: CC(=O)OC1C(C)OC(OC2C(C)OC(OC(=O)[C@]34CCC(C)(C)CC3C3=CCC5[C@@]6(C)CC[C@H](OC7OC(C(=O)O)C(O)C(OC8OCC(O)C(O)C8O)C7OC7OC(CO)C(O)C(O)C7O)[C@@](C)(CO)C6CC[C@@]5(C)[C@]3(C)C[C@H]4O)C(OC3OC(C)C(OC4OCC(O)C(OC5OC(CO)C(O)C(O)C5O)C4O)C(O)C3O)C2O)C(O)C1OC1OCC(O)C(O)C1O (stereo partly shown) [SO1861-Ald-OH]
- CMC [4, 7]: 135 ± 14 µM
- CMC compared with the corresponding native/underivatised saponin [4]: higher CMC values
- CMC compared with the corresponding native/underivatised saponin ([4]; listed as 6): increased CMC

Compound: CC(=O)OC1C(C)OC(OC2C(C)OC(OC(=O)[C@]34CCC(C)(C)CC3C3=CCC5[C@@]6(C)CC[C@H](OC7OC(C(=O)NCCN8C(=O)C=CC8=O)C(O)C(OC8OCC(O)C(O)C8O)C7OC7OC(CO)C(O)C(O)C7O)[C@@](C)(C=O)C6CC[C@@]5(C)[C@]3(C)C[C@H]4O)C(OC3OC(C)C(OC4OCC(O)C(OC5OC(CO)C(O)C(O)C5O)C4O)C(O)C3O)C2O)C(O)C1OC1OCC(O)C(O)C1O (stereo partly shown) [SO1861-Glu-AEM]
- IC50 (HeLa cells [3]; [9]): > 100000 nM
- CMC [4, 7]: 45 ± 5 µM
- CMC compared with the corresponding native/underivatised saponin [4]: lower CMC values

Compound: CC(=O)OC1C(C)OC(OC2C(C)OC(OC(=O)[C@]34CCC(C)(C)CC3C3=CCC5[C@@]6(C)CC[C@H](OC7OC(C(=O)NC(C)(CO)CO)C(O)C(OC8OCC(O)C(O)C8O)C7OC7OC(CO)C(O)C(O)C7O)[C@@](C)(C=O)C6CC[C@@]5(C)[C@]3(C)C[C@H]4O)C(OC3OC(C)C(OC4OCC(O)C(OC5OC(CO)C(O)C(O)C5O)C4O)C(O)C3O)C2O)C(O)C1OC1OC(C)C(O)C(O)C1O (stereo partly shown) [SO1861-Glu-AMPD]
- CMC [4, 7]: 50 ± 5 µM
- CMC compared with the corresponding native/underivatised saponin [4]: lower CMC values

Compound: CC(=O)On1nnc2cccnc21 [SO1861-Glu-HATU]
- Cell killing activity (+ or -) (HeLa cells [1]; [8]): +
- Cell killing activity (+ or -) (HeLa cells [1]; [6]): -

Compound: Aescin [Aescin (95%), reference compound]
- CMC [4, 10]: 130 ± 13 µM

Compound: Aescin [Aescin (98%), reference compound]
- CMC [4, 10]: 135 ± 14 µM

Compound: QS21 [reference compound]
- CMC ([4]; QS saponins (Table A8, MQ)): 49 µM
- CMC ([4]; QS saponins, determined in purified water (MQ) (Table A8)): 49 ± 5 µM
- CMC ([4]; in MQ (Table A9)): 49 ± 5 µM
- CMC ([4]; modified QS21 saponins, determined in PBS (Table A9)): 40 ± 5 µM
